Test results published in patent US20260102472A1, “SEMAGLUTIDE IN MEDICAL THERAPY” (Novo Nordisk A/S, priority 2023, published 2026).

Tested on: human subjects with established cardiovascular (CV) disease and obesity or overweight
Assay: Randomised, double-blind, placebo-controlled clinical trial of semaglutide in established cardiovascular disease and obesity or overweight (Example 3)
Format: in vivo
Settings: for Heart failure leading to hospitalisation, Treatment Hazard ratio vs. placebo / Heart failure leading to hospitalisation, Events / Heart failure leading to hospitalisation, Events (%): baseline to end-of-trial (mean duration 39.8 months), 2.4 mg once weekly
Description: A randomised, double-blind, international multicentre, placebo-controlled clinical trial with semaglutide was carried out with 17604 human subjects with established cardiovascular (CV) disease and obesity or overweight.
Key inclusion criteria were at least 45 years of age, BMI of at least 27 kg/m^2 and established (CV) disease. Key exclusion criteria were type 1 diabetes or type 2 diabetes.
Subjects were randomised in a 1:1 manner to receive either 2.4 mg semaglutide or placebo once weekly as add-on to standard of care. After randomization, a 16-week dose escalation period followed and then an event driven maintenance period with a mean (+SD) duration of exposure to semaglutide or placebo in the overall trial population of 34.2 (±13.7) months (33.3 (±14.4) months for semaglutide and 35.1 (±13.0) months for placebo). Subjects administered semaglutide initiated treatment with a once-weekly dose of 0.25 mg and followed a fixed dose escalation regimen, with dose increase every 4 weeks (through dosages of 0.5, 1.0, 1.7 mg once weekly), until the 2.4 mg once weekly maintenance dose was reached after 16 weeks.
Results from the clinical trial are presented in Tables 19-20 based on 8803 and 8801 subjects randomised to semaglutide and placebo, respectively. Results from the chronic heart failure (HF) population of the clinical trial are presented in Tables 21-22 based on 2155 and 2131 chronic HF subjects randomised to semaglutide and placebo, respectively. Heart failure leading to hospitalisation was defined as hospital admission for at least 24 hours with a primary diagnosis of heart failure with documented new or worsening symptoms due to heart failure; and objective evidence of new or worsening heart failure (physical findings and/or laboratory evidence or invasive diagnostic evidence); and increased/initiated appropriate treatment. Estimated hazard ratios relative to placebo and two-sided p-values were obtained from a Cox proportional hazards model with randomised treatment as a fixed factor. CI: Confidence interval.

[1] = subjects with chronic HF only (2155)

Substance: N-epsilon26-[2-(2-{2-[2-(2-{2-[(S)-4-Carboxy-4-(17-carboxyheptadecanoyl-amino) butyrylamino]ethoxy}ethoxy) acetylamino]ethoxy}ethoxy) acetyl] [Aib8,Arg34] GLP-1-(7-37) [Semaglutide]
- Heart failure leading to hospitalisation, Treatment Hazard ratio vs. placebo: 0.79
- Heart failure leading to hospitalisation, Events (8803 subjects): 97
- Heart failure leading to hospitalisation, Events (%) (8803 subjects): 1.1%
- Heart failure leading to hospitalisation, Treatment Hazard ratio vs. placebo (listed as semaglutide): achieved a reduction
- Reduction for CV death compared with placebo (patients with chronic heart failure, statistically significant): 24%
- Heart failure leading to hospitalisation, Events [1]: 61
- Heart failure leading to hospitalisation, Events (%) [1]: 2.8%
- Heart failure leading to hospitalisation, Treatment Hazard ratio vs. placebo (subjects with chronic HF only): 0.86
- Heart failure leading to hospitalisation, Treatment Hazard ratio vs. placebo (subjects with chronic HF only, listed as semaglutide): achieved a reduction
